The values that follow come from publication PMC11124362, “Metabolism, Disposition, Excretion, and Potential Transporter Inhibition of 7–16, an Improving 5-HT2A Receptor Antagonist and Inverse Agonist for Parkinson’s Disease” (Molecules, 2024).

One data set deals with T1, OATP1B3 (Homo sapiens, UniProt Q9NPD5).
T1 sequence (Q9NPD5 1-702): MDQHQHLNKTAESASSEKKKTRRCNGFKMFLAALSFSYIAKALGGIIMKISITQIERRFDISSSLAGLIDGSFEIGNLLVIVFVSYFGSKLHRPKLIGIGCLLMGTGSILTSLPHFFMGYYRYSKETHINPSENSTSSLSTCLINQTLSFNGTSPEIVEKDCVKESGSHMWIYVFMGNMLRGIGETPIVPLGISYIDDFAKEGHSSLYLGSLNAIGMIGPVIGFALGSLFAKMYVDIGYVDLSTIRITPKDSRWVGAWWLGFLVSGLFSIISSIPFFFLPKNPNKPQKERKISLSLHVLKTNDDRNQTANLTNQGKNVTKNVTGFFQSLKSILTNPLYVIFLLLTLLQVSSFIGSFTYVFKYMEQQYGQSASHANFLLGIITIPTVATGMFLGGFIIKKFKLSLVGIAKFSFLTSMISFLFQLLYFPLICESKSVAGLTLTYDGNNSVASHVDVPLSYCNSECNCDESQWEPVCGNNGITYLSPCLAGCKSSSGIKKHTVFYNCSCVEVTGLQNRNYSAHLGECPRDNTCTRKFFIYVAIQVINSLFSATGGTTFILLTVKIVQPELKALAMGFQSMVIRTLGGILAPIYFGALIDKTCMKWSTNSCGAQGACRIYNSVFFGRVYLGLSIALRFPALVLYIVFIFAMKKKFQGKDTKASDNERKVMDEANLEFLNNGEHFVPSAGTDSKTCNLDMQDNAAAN

The next data set deals with T2, OCT2 (Homo sapiens, UniProt O15244).
T2 sequence (O15244 1-555): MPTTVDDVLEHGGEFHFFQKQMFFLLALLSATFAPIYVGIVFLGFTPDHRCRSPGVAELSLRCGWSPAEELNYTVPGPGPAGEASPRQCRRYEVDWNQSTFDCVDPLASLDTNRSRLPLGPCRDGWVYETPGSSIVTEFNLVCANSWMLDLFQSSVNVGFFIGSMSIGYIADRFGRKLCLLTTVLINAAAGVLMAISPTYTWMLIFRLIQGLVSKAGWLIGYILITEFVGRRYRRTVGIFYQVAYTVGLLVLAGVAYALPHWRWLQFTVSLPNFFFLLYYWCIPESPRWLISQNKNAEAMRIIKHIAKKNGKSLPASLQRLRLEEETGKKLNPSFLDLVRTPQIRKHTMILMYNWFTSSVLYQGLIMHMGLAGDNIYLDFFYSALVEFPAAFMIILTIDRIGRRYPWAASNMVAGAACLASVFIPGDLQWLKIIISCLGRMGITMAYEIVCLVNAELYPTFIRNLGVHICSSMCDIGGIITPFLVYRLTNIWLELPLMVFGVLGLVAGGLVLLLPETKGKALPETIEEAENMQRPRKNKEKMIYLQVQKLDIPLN

The nature of data set [1]: Metabolite identification in mouse liver microsomes. The data set is classed as in vitro ADME. The conditions noted are these: 7–16 10 µM, liver microsomes 1 mg/mL, NADPH, 37 °C, 60 min. The method, then:
In accordance with our previous methods, 7–16 (10 µM) was incubated with mouse, rat, dog, monkey, and human liver microsome proteins (1 mg/mL) in 100 mM sodium phosphate buffer (pH 7.4) containing 10 mM magnesium chloride and 2 mM NADPH at 37 °C for 60 min. All samples were prepared in duplicates. The reactions were terminated by adding three times the volume of ice-cold acetonitrile (600 µL) and stored at −20 °C until analysis. Control samples without NADPH and 0-time point samples were included. As a positive control, testosterone (10 µM), which was metabolized to produce the hydroxylation metabolite, was used as a substrate to confirm the activity of the incubation system.
After pre-treatments, the samples were analyzed by an Acquity UPLC system coupled with a diode array detector (Waters Corporation, Milford, MA, USA) and Q Exactive HRMS (Thermo Electron Corporation, Waltham, MA, USA) (UPLC–UV-Q Exactive HRMS). Samples were separated on an Agilent XDB C18 column (150 × 2.1 mm i.d. 3.5 μm, Agilent Corporation, Santa Clara, CA, USA) at 40 °C by gradient elution with water and acetonitrile containing 0.1% formic acid. The flow rate was 0.40 mL/min. The ultraviolet (UV) detection wavelength was 286 nm. Q Exactive HRMS were operated at positive ion mode (3.5 kV) using a heating electrospray ionization source. Mass calibration was required to be performed before conducting experiments so as to achieve the best mass accuracy and mass calibration should be performed every five days. The metabolites were detected by full MS/dd-MS^2 analysis from m/z 100 to m/z 1000. The resolution of the first-class scan and second-class scan was 70,000 and 17,500, respectively. Thermo Compound Discover software was used to identify expected and unknown metabolites, and we finally proposed the 7–16 metabolic pathways based on the deduced metabolites and relevant drug biotransformation knowledge.

With `CN1CCC(N(Cc2ccc(F)cn2)C(=O)NCc2ccc(OCC(F)(F)F)cc2)CC1` [7–16, 3-(4-(2,2,2-trifluoroethoxy)benzyl)-1-((5-fluoropyridin-2-yl)methyl)-1-(1-methylpiperidin-4-yl) urea], the IC50 at OATP1B3 came to 89.5 µM; at OCT2 it was 72.5 µM. The “Relative Abundance, UV Area% Mouse” value in data set [1] was 91.3%.
